For 9 molecules, GI50 and TGI results are on record in PubChem BioAssay (NCI).

Test in all cases: NCI anticancer screen, dose series, 48 h
For assay [1], the system named is NCI-H226 lung.
Assay [2] relates to 786-0 renal.
The subject of assay [3] is OVCAR-8 ovarian.
The test system of assay [4] is TK-10 renal.
In assay [5] the test system is HOP-92 NSCLC.
Assay [6] concerns MOLT-4 leukemia.
In assay [7] the test system is UO-31 renal.
For assay [8], the system named is LOX IMVI melanoma.
Assay [9] relates to RXF 393 renal.
Assay [10] relates to KM12 colon.

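96-well plates; 48 h exposure; 5 concentrations. Endpoints by linear interpolation between flanking doses. Not reached: highest tested concentration assigned. At the GI50, growth is halved. TGI: concentration producing complete growth inhibition.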

For `COc1cc(C)c(C(=O)O[C@H]2[C@H](O[C@H]3[C@@H](O)COC(O[C@H]4C[C@H]5[C@@H]6CC=C7C[C@@H](O)CC[C@]7(C)[C@H]6CC[C@]5(C)[C@H]4[C@H](C)C(=O)CCC(C)C)[C@@H]3OC(C)=O)OC[C@@H](O)[C@@H]2O)c(C)c1` (some centres not stated), the GI50 in assay [1] was 135 nM; in [2], less than 10 nM; in [3] it was 10300 nM; in assay [4] it was 704 nM; in assay [5] it was less than 10 nM; in assay [6], less than 10 nM. Besides, the GI50 in [7] is less than 10 nM; in assay [8], less than 10 nM; in [9], less than 10 nM; in [10], 153 nM. For the same molecule, the TGI is 12400 nM in [1]; 2550 nM in [2]; more than 100000 nM in assay [3]; 16600 nM in assay [4]; 2580 nM in assay [5]; 704 nM in [6]. Further, the TGI in assay [7] was 58.4 nM; in assay [8], 18.3 nM; in assay [9] it was less than 10 nM; in [10], 18400 nM.

For `CCSc1oc(-c2ccccc2)nc1[P+](c1ccccc1)(c1ccccc1)c1ccccc1`, the GI50 was 286 nM in [1]; 376 nM in assay [2]; 275 nM in [3]; 258 nM in assay [4]; 150 nM in assay [5]; 321 nM in assay [7]. In addition, the GI50 in assay [8] was 184 nM; in assay [9], 331 nM; in assay [10] it was 233 nM. Moreover, the TGI amounted to 1860 nM in [1]; 2110 nM in assay [2]; 12300 nM in [3]; 2660 nM in [4]; 551 nM in assay [5]; 1380 nM in [7]. Also, the TGI in assay [8] came out at 412 nM; in assay [9] it was 1930 nM; in assay [10], 1090 nM.

For `CC(C)C[C@H](NC(=O)[C@H](CCc1ccccc1)NC(=O)CN1CCOCC1)C(=O)N[C@@H](Cc1ccccc1)C(=O)N[C@@H](CC(C)C)C(=O)[C@@]1(C)CO1`, the GI50 in [1] was less than 12.2 nM; in assay [2], 31.1 nM; in assay [3], 20.4 nM; in assay [4], 14.4 nM; in [5] it was 23.6 nM; in assay [6], less than 10 nM. The GI50 is 116 nM in [7], less than 10 nM in assay [8], less than 14 nM in [9] and less than 10 nM in [10]. Further, the TGI in assay [1] is less than 17.5 nM; in assay [2] it was 332 nM; in [3], 95.2 nM; in [4] it was 93.4 nM; in assay [5] it was 81.2 nM; in assay [6], more than 100000 nM. Also, the TGI was 575 nM in assay [7], 13.5 nM in assay [8], 24.6 nM in [9] and 19.9 nM in assay [10].

For `CC(C)[C@@H]1C=C(c2ccccc2)c2ccccc2C1C(C#N)(C#N)C(C)C` (some centres not stated), the TGI in assay [1], in [2], in [3], in assay [4], in assay [5] and in [6] was more than 100000 nM throughout. Further, the TGI in [7], in assay [8], in [9] and in [10] was more than 100000 nM each time.

With `N/C(=N\NS(=O)(=O)c1ccccc1)Oc1ccc(Cl)cc1`, the TGI in assay [1], in assay [2], in assay [3], in assay [4], in [5] and in assay [6] was more than 100000 nM in each case. The TGI in [7] is more than 100000 nM; in assay [8] it was more than 100000 nM; in [9], 58100 nM; in [10] it was more than 100000 nM.

On to `NC(=O)CCC(NC(=O)OCc1ccccc1)C(=O)OCC(=O)c1ccccc1` (configuration not stated), for which the GI50 in assay [1], in assay [2], in assay [4], in [5], in assay [6] and in assay [7] was more than 100000 nM in each case. Also, the GI50 in [8], in [9] and in assay [10] was more than 100000 nM in each case. In addition, the TGI in assay [1], in assay [2], in assay [4], in assay [5], in [6] and in assay [7] was more than 100000 nM each time. In addition, the TGI in [8], in [9] and in [10] was more than 100000 nM throughout.

With `Cn1c2c([N+](=O)[O-])[se]nc2c(=O)n1-c1ccc([N+](=O)[O-])cc1`, the TGI is 7910 nM in assay [1]; 6500 nM in [2]; 2720 nM in [3]; 16200 nM in assay [4]; 3370 nM in assay [5]; 3590 nM in assay [7]. Besides, the TGI in [8] turned out to be 6880 nM; in [9], 2210 nM; in [10], 15700 nM.

Take `CCN(CC)CCN1C(=O)c2c(c(C)c3c(oc4cc(O)ccc43)c2C)C1=O`: the GI50 in assay [1] is 2060 nM; in assay [2], 1620 nM; in assay [3] it was 2110 nM; in assay [4] it was 1930 nM; in assay [5] it was 1540 nM; in [7], 1480 nM. The GI50 in assay [8] was 1700 nM; in assay [9], 1330 nM; in [10] it was 1820 nM. Further, the TGI worked out at 4380 nM in assay [1]; 3200 nM in [2]; 5720 nM in [3]; 3620 nM in assay [4]; 3140 nM in [5]; 2810 nM in assay [7]. Moreover, the TGI in [8] is 3180 nM; in assay [9], 2690 nM; in assay [10], 3740 nM.

Regarding `CCOC(=O)C1N(S(=O)(=O)c2ccc(C)cc2)CCC12c1ccccc1N(C(C)=O)C2C(/C=C/C(=O)OC)=C/C(=O)OC` (configuration not stated), the TGI in [1], in [2], in [3], in assay [4], in assay [5] and in assay [7] was more than 100000 nM in each case. Also, the TGI in [8], in assay [9] and in [10] was more than 100000 nM in each case.
